According to US20220073536A1 (Rigel Pharmaceuticals, Inc., priority 2003, published 2022):
Several values for one entry are separate records, joined by “and”; a condition that tells them apart may be missing. Identical values can stand only once. Blank lines part the entries; values can stand above or below the molecule they belong to.

Columns and labels:
[1] = tested on: cultured human mast cells (CHMC); assay: CHMC low cell density IgE activation: tryptase assay; type: cell-based; settings: Homo sapiens, Mast cell, IgE activation
Summary of the method: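 Anti-IgE-driven degranulation of cultured human mast cells at low density, 1000–1500 cells/well, was induced over 30 min at 37 °C. It was scored by supernatant tryptase activity on a fluorogenic substrate.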

[2] = tested on: cultured human mast cells (CHMC); assay: CHMC low cell density ionomycin activation: tryptase assay; type: cell-based; settings: Homo sapiens, Mast cell, 3 pt, read-out: LD Tryptase, CHMC, Iono, 3 pt
Syk kinase = target: T1, Syk kinase (Homo sapiens, UniProt P43405); assay: Syk kinase biochemical fluorescence polarization assay; settings: isolated Syk kinase, 11 pt, read-out: fp_syk, 11 pt
T1 construct: purchased Upstate, Lake Placid N.Y
Procedure: Many of the 2,4-pyrimidinediamine compounds were tested for the ability to inhibit Syk kinase catalyzed phosphorylation of a peptide substrate in a biochemical fluorescenced polarization assay with isolated Syk kinase. In this experiment, Compounds were diluted to 1% DMSO in kinase buffer (20 mM HEPES, pH 7.4, 5 mM MgCl2, 2 mM MnCl2, 1 mM DTT, 0.1 mg/mL acetylated Bovine Gamma Globulin). Compound in 1% DMSO (0.2% DMSO final) was mixed with ATP/substrate solution at room temperature. Syk kinase (Upstate, Lake Placid N.Y.) was added to a final reaction volume of 20 uL, and the reaction was incubated for 30 minutes at room temperature. […] EDTA (10 mM final)/anti-phosphotyrosine antibody (1× final)/fluorescent phosphopeptide tracer (0.5× final) was added in FP Dilution Buffer to stop the reaction for a total volume of 40 uL according to manufacturer's instructions (PanVera Corporation) The plate was incubated for 30 minutes in the dark at room temperature. Plates were read on a Polarion fluorescence polarization plate reader (Tecan). Data were converted to amount of phosphopeptide present using a calibration curve generated by competition with the phosphopeptide competitor provided in the Tyrosine Kinase Assay Kit, Green (PanVera Corporation).

C57BL/6 mice = assay: Mouse cutaneous Reverse Passive Arthus (RPA) reaction, edema; type: in vivo
Description: Immune complex (IC)-mediated acute inflammatory tissue injury is implicated in a variety of human autoimmune diseases, including vasculitis syndrome, sick serum syndrome, systemic lupus erythematosus (SLE), rheumatoid arthritis, Goodpasture's syndrome, and glomerulonephritis. The classical experimental model for IC-mediated tissue injury is the reverse passive Arthus reaction. The RPA reaction model is a convenient in vivo method to study localized inflammation, induced by ICs, without systemic effects. Intradermal injection of antibodies (Abs) specific to chicken egg albumin (rabbit anti-OVA IgG), followed by intravenous (IV) injection of antigens (Ags), specifically chicken egg albumin (ovalbumin, OVA), causes perivascular deposition of ICs and a rapid inflammatory response characterized by edema, neutrophil infiltration and hemorrhage at the injection sites. Aspects of the mouse RPA reaction model resemble the inflammatory response of patients with rheumatoid arthritis, SLE and glomerulonephritis.
(§1) In this model system, test compounds are administered at several timepoints prior to administration of Abs and Ags. A solution of rabbit anti-OVA IgG ([…] in 25 μl/mouse) is injected intradermally, and immediately following is an intravenous injection of chicken egg albumin (20 mg/kg of body weight) in a solution containing 1% Evans blue dye. The degree of edema and hemorrhage is measured in the dorsal skin of C57BL/6 mice using the Evan's Blue dye as an indicator of local tissue damage. Purified polyclonal rabbit IgG is used as a control.
Pretreatment time, in which the test compounds are administered prior to Ab/Ag challenge, depends on the pharmacokinetic (PK) properties of each individual compound. Four hours after induction of Arthus reaction, mice are euthanized, and tissues are harvested for assessment of edema. This model system allows us to rapidly screen the in vivo activity of many inhibitors.
(§2) All compounds tested were administered by the oral route.

[3] = Plasma concentration in the mouse RPA reaction study; type: in vivo
Procedure: as §1
Pretreatment time, in which the test compounds are administered prior to Ab/Ag challenge, depends on the pharmacokinetic (PK) properties of each individual compound. Four hours after induction of Arthus reaction, mice are euthanized, and tissues are harvested for assessment of edema.
as §2

[4] = low cell density CHMC, tryptase release, 3 pt, read-out: LD Tryptase, CHMC, IgE, 3 pt
[5] = low cell density CHMC, tryptase release, 8 pt, read-out: LD Tryptase, CHMC, IgE, 8 pt
[6] = low cell density CHMC, tryptase release
[7] = 0.1 mg/kg oral, pretreatment time 0.5 hrs
[8] = 0.5 mg/kg oral, pretreatment time 0.5 hrs
[9] = 1 mg/kg oral, pretreatment time 0.5 hrs
[10] = 5 mg/kg oral, pretreatment time 0.5 hrs
[11] = low cell density, 3 pt, read-out: LD Tryptase, CHMC, IgE, 3 pt
[12] = low cell density, 8 pt, read-out: LD Tryptase, CHMC, IgE, 8 pt
[13] = oral, dosage 0.5, pretreatment 5
[14] = oral, printed in dosage position 0.5, in pretreatment position 15
[15] = low cell density CHMC, tryptase, 3 pt, read-out: LD Tryptase, CHMC, IgE, 3 pt
[16] = low cell density CHMC, tryptase, 8 pt, read-out: LD Tryptase, CHMC, IgE, 8 pt
[17] = low cell density CHMC, tryptase

- Exposure = Pretreatment Time + 4 hours Plasma Concentration ± SEM [3, 7]: BLQ
- Exposure = Pretreatment Time + 4 hours Plasma Concentration ± SEM [3, 8]: BLQ
SMILES: COc1cc(Nc2ncc(F)c(Nc3ccc4c(n3)NC(=O)C(C)(C)O4)n2)cc(OC)c1OC [Compound 1007, N4-(2,2-Dimethyl-3-oxo-4H-5-pyrid[1,4]oxazin-6-yl)-5-fluoro-N2-(3,4,5-trimethoxyphenyl)-2,4-pyrimidinediamine]
- % inhibition to vehicle control Edema Size ± SEM (C57BL/6 mice; [7]): 64.3% and 64.3 ± 11.2%
- % inhibition to vehicle control Edema Size ± SEM (C57BL/6 mice; [8]): 78.7% and 78.7 ± 6.3%
- % inhibition to vehicle control Edema Size ± SEM (C57BL/6 mice; [9]): 89.4 ± 2.2% and 98.1 ± 0.8%
- % inhibition to vehicle control Edema Size ± SEM (C57BL/6 mice; 3 mg/kg oral, pretreatment time 0.5 hrs): 86.3 ± 7.9%
- % inhibition to vehicle control Edema Size ± SEM (C57BL/6 mice; [10]): 99.8% and 99.8 ± 0.2%
- % inhibition to vehicle control Edema Size ± SEM (C57BL/6 mice; 10 mg/kg oral, pretreatment time 0.5 hrs): 97.8 ± 1.1%
- % inhibition to vehicle control Edema Size ± SEM (C57BL/6 mice; 30 mg/kg oral, pretreatment time 0.5 hrs): 88.2 ± 5.7%

- IC50 ([1]; low cell density CHMC, tryptase readout, 3 pt, read-out: LD Tryptase, CHMC, IgE, 3 pt): < 10 µM
- IC50 ([1]; low cell density CHMC, tryptase readout, 8 pt, read-out: LD Tryptase, CHMC, IgE, 8 pt): < 10 µM
- IC50 ([2]; low cell density CHMC, tryptase readout): > 10 µM
- IC50 (Syk kinase): < 10 µM
SMILES: COc1c(C)cc(Nc2ncc(F)c(Nc3cccc(NC4=NCCN4)c3)n2)cc1C [Compound 1093]

- IC50 [1, 15]: < 10 µM
- IC50 [1, 16]: < 10 µM
- IC50 [2, 17]: > 10 µM
- IC50 (Syk kinase): < 10 µM
SMILES: Fc1cnc(Nc2cccc(-c3ncco3)c2)nc1Nc1cc(C2CC2)n[nH]1 [Compound 1144, N4-(3-Cyclopropyl-1H-pyrazol-5-yl)-5-fluoro-N2-[3-(oxazol-2-yl)phenyl]-2,4-pyrimidinediamine]

- IC50 [1, 15]: < 10 µM
- IC50 [1, 16]: < 10 µM
- IC50 [2, 17]: > 10 µM
- IC50 (Syk kinase): < 10 µM
SMILES: CN1CCN(c2ccc(Nc3ncc(F)c(N(C)C4CCC4)n3)cc2)CC1 [Compound 1147, N4-Cyclobutyl-5-fluoro-N4-methyl-N2-[4-(4-methylpiperazino)phenyl]-2,4-pyrimidinediamine]

- IC50 [1, 15]: < 10 µM
- IC50 [2, 17]: > 10 µM
- IC50 (Syk kinase): < 10 µM
SMILES: CN1CCN(c2ccc(Nc3ncc(F)c(NC4CCCCC4)n3)cc2)CC1 [Compound 1164, N4-Cyclohexyl-5-fluoro-N2-[4-(4-methylpiperazino)phenyl]-2,4-pyrimidinediamine]

- IC50 [1, 15]: > 10 µM
- IC50 [1, 16]: < 10 µM
- IC50 [2, 17]: > 10 µM
- IC50 (Syk kinase): < 10 µM
SMILES: O=C(Nc1ccc(Nc2ncc(F)c(NC3CCCCC3)n2)cc1)c1ccccc1 [Compound 1174, N2-(4-Benzamidophenyl)-N4-cyclohexyl-5-fluoro-2,4-pyrimidinediamine]

Continued, molecule first:

SMILES: Fc1cnc(Nc2ccc3[nH]c(C(F)(F)F)nc3c2)nc1Nc1ccc(Cl)c(Cl)c1 [Compound 801, N4-(3,4-Dichlorophenyl)-5-fluoro-N2-(2-trifluoromethyl-1H-benzimidazol-5-yl)-2,4-pyrimidinediamine]
- IC50 [1, 4]: < 10 µM
- IC50 [1, 5]: < 10 µM
- IC50 [2, 6]: < 10 µM
- IC50 (Syk kinase): < 10 µM

SMILES: COc1ccc(Nc2nc(Nc3ccc4nc(C)[nH]c4c3)ncc2F)cc1Cl [Compound 808, N4-(3-Chloro-4-methoxyphenyl)-5-fluoro-N2-(2-methyl-3H-benzimidazol-5-yl)-2,4-pyrimidinediamine]
- IC50 [1, 4]: < 10 µM
- IC50 [1, 5]: < 10 µM
- IC50 [2, 6]: > 10 µM
- IC50 (Syk kinase): < 10 µM

SMILES: Cc1nc2ccc(Nc3ncc(F)c(Nc4ccc(Cl)c(Cl)c4)n3)cc2[nH]1 [Compound 809, N4-(3,4-Dichlorophenyl)-5-fluoro-N2-(2-methyl-3H-benzimidazol-5-yl)-2,4-pyrimidinediamine]
- IC50 [1, 4]: < 10 µM
- IC50 [1, 5]: < 10 µM
- IC50 [2, 6]: > 10 µM
- IC50 (Syk kinase): < 10 µM

SMILES: Cc1nc2ccc(Nc3ncc(F)c(Nc4ccc5c(c4)NC(=O)C(C)(C)O5)n3)cc2[nH]1 [Compound 810, N4-(2,2-Dimethyl-3-oxo-4H-benz[1,4]oxazin-6-yl)-5-fluoro-N2-(2-methyl-3H-benzimidazol-5-yl)-2,4-pyrimidinediamine]
- IC50 [1, 4]: < 10 µM
- IC50 [1, 5]: < 10 µM
- IC50 [2, 6]: > 10 µM
- % inhibition to vehicle control Edema Size ± SEM (C57BL/6 mice; [7]): 69.5 ± 19.6%
- % inhibition to vehicle control Edema Size ± SEM (C57BL/6 mice; [8]): 60.9 ± 9.6%
- % inhibition to vehicle control Edema Size ± SEM (C57BL/6 mice; [9]): 81.3% and 81.3 ± 8.4%
- % inhibition to vehicle control Edema Size ± SEM (C57BL/6 mice; [10]): 92.1 ± 3.1%

SMILES: Cn1c(N2CCOCC2)nc2cc(Nc3ncc(F)c(Nc4ccc5c(c4)NC(=O)C(C)(C)O5)n3)ccc21 [Compound 944, N4-(2,2-Dimethyl-3-oxo-4H-benz[1,4]oxazin-6-yl)-5-fluoro-N2-[1-methyl-2-(4-morpholino)benzimidazol-5-yl]-2,4-pyrimidinediamine]
- IC50 [1, 11]: < 10 µM
- IC50 [1, 12]: < 10 µM
- % inhibition to vehicle control Edema Size ± SEM (C57BL/6 mice; 2 mg/kg oral, pretreatment time 1 hr): 39.3 ± 13.8%
- % inhibition to vehicle control Edema Size ± SEM (C57BL/6 mice; 5 mg/kg oral, pretreatment time 1 hr): 48.4 ± 12.0%
- % inhibition to vehicle control Edema Size ± SEM (C57BL/6 mice; 15 mg/kg oral, pretreatment time 1 hr): 56.1 ± 9.2%
- % inhibition to vehicle control Edema Size ± SEM (C57BL/6 mice; [13]): −16.0 ± 17.3%
- % inhibition to vehicle control Edema Size ± SEM (C57BL/6 mice; [14]): 8.3 ± 13.4%
- Exposure = Pretreatment Time + 4 hours Plasma Concentration ± SEM [3, 13]: 3.4 ± 9.1 ng/mL
- Satellite: At time of challenge Plasma Concentration ± SEM [3, 13]: 22.1 ± 52.4 ng/mL
- Exposure = Pretreatment Time + 4 hours Plasma Concentration ± SEM [3, 14]: 85.1 ± 161.9 ng/mL
- Satellite: At time of challenge Plasma Concentration ± SEM [3, 14]: 1074.0 ± 492.3 ng/mL

SMILES: COc1c(C)cc(Nc2ncc(F)c(Nc3ccc4c(c3)NC(=O)C(C)(C)O4)n2)cc1Cl.Cc1ccc(S(=O)(=O)O)cc1 [Compound 994, N2-(3-Chloro-4-methoxy-5-methylphenyl)-N4-(2,2-dimethyl-3-oxo-4H-benz[1,4]oxazin-6-yl)-5-fluoro-2,4-pyrimidinediamine p-Toluenesulfonic Acid Salt]
- IC50 ([1]; CHMC, read-out: in vitro Potency (CHMC IgE)): 0.047 µM
- IC50 [1, 11]: < 10 µM
- IC50 [1, 12]: < 10 µM
- IC50 ([2]; low cell density): < 10 µM
- % inhibition to vehicle control Edema Size ± SEM (C57BL/6 mice; 100 mg/kg oral, 90 minutes prior to Ab/Ag challenge (pretreatment cell of table empty), C57BL/6 mice): 75% and 75.0 ± 6.2%
